This is an account of results in patent US9663473B2 (Actelion Pharmaceuticals Ltd, priority 2013, dated 2017).

Where a name gives a salt, the structure may show the parent alone.

In the assay the target is T1, recombinant human ALX receptor (Homo sapiens, UniProt P25090).
T1 construct: expressed in transfected cells; host or cells: HEK293 (HEK293-hALXR-Gα16)
T1 sequence (P25090 1-351): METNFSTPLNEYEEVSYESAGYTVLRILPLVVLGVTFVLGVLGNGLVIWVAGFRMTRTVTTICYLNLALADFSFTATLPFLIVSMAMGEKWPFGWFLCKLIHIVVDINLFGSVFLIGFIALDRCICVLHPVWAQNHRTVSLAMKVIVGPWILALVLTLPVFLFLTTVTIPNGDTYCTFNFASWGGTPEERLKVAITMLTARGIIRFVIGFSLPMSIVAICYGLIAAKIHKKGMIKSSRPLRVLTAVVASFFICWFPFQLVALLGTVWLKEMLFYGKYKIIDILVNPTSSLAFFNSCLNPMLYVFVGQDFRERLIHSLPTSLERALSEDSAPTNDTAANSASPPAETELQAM
The assay is described as follows: Intracellular calcium measurements (FLIPR), ALX receptor agonistic activity. Type of assay: cell-based. The following applies: HEK293-hALXR-Gα16 cells, Fluo-4 calcium signal, normalized to WKYMVm 10 nM. In short, it runs like this: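 Agonist-induced calcium flux was read by FLIPR (488/540 nm) as baseline-subtracted peak emission, expressed relative to WKYMVm at 10 nM final. Cells used: HEK293-hALXR-Gα16, dye-loaded 60 min at 37° C. with 1 μM Fluo-4 AM before compound dose-response addition.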
As to `COc1ccc(CC(NC(=O)NCc2cc(C(C)C)on2)c2nc3ccccc3[nH]2)cc1` (stereo not drawn) [Example 377, 1-(1-(1H-Benzo[d]imidazol-2-yl)-2-(4-methoxyphenyl)ethyl)-3-((5-isopropylisoxazol-3-yl)methyl)urea], the EC50 was determined as 1630 nM. Take `COc1ccc(C[C@@H](NC(=O)NC2(c3ccccc3)CC2)c2nc3ccccc3[nH]2)cc1` [Example 351, (R)-1-(1-(1H-Benzo[d]imidazol-2-yl)-2-(4-methoxyphenyl)ethyl)-3-(1-phenylcyclopropyl)urea]: the 50% effective concentration (EC50) is 350 nM. For `O=C(NC(Cc1ccc(Br)c(F)c1)c1nc2ccccc2[nH]1)N[C@H]1CC[C@H](O)CC1` (relative stereo) [Example 187, 1-(1-(1H-Benzo[d]imidazol-2-yl)-2-(4-bromo-3-fluorophenyl)ethyl)-3-(trans-4-hydroxycyclohexyl)urea], the EC50 turned out to be 8.1 nM. Regarding `COc1ccc(C[C@@H](NC(=O)NCCc2cccc(Cl)c2)c2nc3ccccc3[nH]2)cc1` [Example 61, (R)-1-(1-(1H-Benzo[d]imidazol-2-yl)-2-(4-methoxyphenyl)ethyl)-3-(3-chlorophenethyl)urea hydrochloride], the EC50 is 239 nM. Turning to `COc1ccc(C[C@@H](NC(=O)NCc2nn(C)c3ccccc23)c2nc3ccccc3[nH]2)cc1` [Example 298, (R)-1-(1-(1H-Benzo[d]imidazol-2-yl)-2-(4-methoxyphenyl)ethyl)-3-((1-methyl-1H-indazol-3-yl)methyl)urea], the EC50 turned out to be 203 nM. As to `COc1ccc(C[C@@H](NC(=O)NC2CCN(S(C)(=O)=O)CC2)c2nc3ccccc3[nH]2)cc1` [Example 143, (R)-1-(1-(1H-Benzo[d]imidazol-2-yl)-2-(4-methoxyphenyl)ethyl)-3-(1-(methylsulfonyl)piperidin-4-yl)urea], the EC50 was 108 nM. As to `COc1ccc(C[C@@H](NC(=O)NC[C@@H](O)c2ccccc2)c2nc3ccccc3[nH]2)cc1` [Example 281, 1-((R)-1-(1H-Benzo[d]imidazol-2-yl)-2-(4-methoxyphenyl)ethyl)-3-((S)-2-hydroxy-2-phenylethyl)urea], the EC50 came to 105 nM. For the molecule `CCc1ccc(CC(NC(=O)N[C@H]2CC[C@H](O)CC2)c2nc3cc(F)ccc3[nH]2)cc1` (single isomer, unassigned; ent-2) [Example 374, 1-(2-(4-Ethylphenyl)-1-(5-fluoro-1H-benzo[d]imidazol-2-yl)ethyl)-3-(trans-4-hydroxycyclohexyl)urea (ent-2)], the EC50 came out at 597 nM. For `COc1ccc(CC(NC(=O)NCC2CCCC2)c2nc3ccccc3[nH]2)cc1` (stereo not drawn) [Example 52, 1-(1-(1H-Benzo[d]imidazol-2-yl)-2-(4-methoxyphenyl)ethyl)-3-(cyclopentylmethyl)urea], the EC50 was determined as 221 nM. In the case of `COc1ccc(CC(NC(=O)N[C@H]2CC[C@H](O)CC2)c2nc3cccnc3[nH]2)cc1` (relative stereo) [Example 427, 1-(1-(3H-imidazo[4,5-b]pyridin-2-yl)-2-(4-methoxyphenyl)ethyl)-3-(trans-4-hydroxycyclohexyl)urea] it was 604 nM; in that of `COc1ccc(C[C@@H](NC(=O)N[C@H]2CCC[C@H]2O)c2nc3ccccc3[nH]2)cc1` [Example 114, 1-((R)-1-(1H-Benzo[d]imidazol-2-yl)-2-(4-methoxyphenyl)ethyl)-3-((1S,2R)-2-hydroxycyclopentyl)urea], 190 nM.

For the molecule “(R)—N-(1-(1H-Benzo[d]imidazol-2-yl)-2-(4-methoxyphenyl)ethyl)-4-acetylpiperazine-1-carboxamide [Example 135]”, the EC50 worked out at 333 nM. As to `COc1ccc(CC(NC(=O)NCCN2CCCC2)c2nc3ccccc3[nH]2)cc1` (stereo not drawn) [Example 391, 1-(1-(1H-Benzo[d]imidazol-2-yl)-2-(4-methoxyphenyl)ethyl)-3-(2-(pyrrolidin-1-yl)ethyl)urea], the EC50 was determined as 2720 nM. With `COc1ccc(C[C@@H](NC(=O)NC2(c3ccc(F)cc3)CC2)c2nc3ccccc3[nH]2)cc1` [Example 341, (R)-1-(1-(1H-Benzo[d]imidazol-2-yl)-2-(4-methoxyphenyl)ethyl)-3-(1-(4-fluorophenyl)cyclopropyl)urea], the EC50 worked out at 397 nM. In the case of `CCOc1ccccc1CCNC(=O)N[C@H](Cc1ccc(OC)cc1)c1nc2ccccc2[nH]1` [Example 73, (R)-1-(1-(1H-Benzo[d]imidazol-2-yl)-2-(4-methoxyphenyl)ethyl)-3-(2-ethoxyphenethyl)urea] it was 99 nM; in that of `COc1ccc(C[C@@H](NC(=O)NC(C)c2ccc(OC(F)(F)F)cc2)c2nc3ccccc3[nH]2)cc1` (stereo partly drawn) [Example 381, 1-((R)-1-(1H-Benzo[d]imidazol-2-yl)-2-(4-methoxyphenyl)ethyl)-3-(1-(4-(trifluoromethoxy)phenyl)ethyl)urea], 1170 nM. As for `CC1(O)CCC(NC(=O)NC(Cc2ccc(Br)c(F)c2)c2nc3ccccc3[nH]2)CC1` (single isomer, unassigned; ent-2) [Example 317, 1-(1-(1H-Benzo[d]imidazol-2-yl)-2-(4-bromo-3-fluorophenyl)ethyl)-3-(trans-4-hydroxy-4-methylcyclohexyl)urea (ent-2)], the EC50 was found to be 5.7 nM. `O=C(NC(Cc1ccc(C(F)(F)F)cc1F)c1nc2cc(F)ccc2[nH]1)N[C@H]1CC[C@H](O)CC1` (single isomer, unassigned; ent-1) [Example 363, 1-(1-(5-Fluoro-1H-benzo[d]imidazol-2-yl)-2-(2-fluoro-4-(trifluoromethyl)phenyl)ethyl)-3-(trans-4-hydroxycyclohexyl)urea (ent-1)]: the EC50 is 5.6 nM.

On to `COc1ccc(C[C@@H](NC(=O)NC(C)c2cn3ccsc3n2)c2nc3ccccc3[nH]2)cc1` (stereo partly drawn) [Example 338, 1-((R)-1-(1H-Benzo[d]imidazol-2-yl)-2-(4-methoxyphenyl)ethyl)-3-(1-(imidazo[2,1-b]thiazol-6-yl)ethyl)urea], for which the EC50 came out at 36 nM. With `COc1ccc(CC(NC(=O)N[C@H]2CC[C@H](O)CC2)c2nc3cc(Br)c(Br)cc3[nH]2)cc1` (single isomer, unassigned; ent-1) [Example 425, 1-(1-(5,6-dibromo-1H-benzo[d]imidazol-2-yl)-2-(4-methoxyphenyl)ethyl)-3-(trans-4-hydroxycyclohexyl)urea (ent-1)], the EC50 was 119 nM. As for `COc1ccc(CC(NC(=O)N[C@H]2CC[C@H](O)CC2)c2nc3ccc(F)cc3[nH]2)c(F)c1` (single isomer, unassigned; ent-1) [Example 260, 1-(1-(6-Fluoro-1H-benzo[d]imidazol-2-yl)-2-(2-fluoro-4-methoxyphenyl)ethyl)-3-(trans-4-hydroxycyclohexyl)urea (ent-1)], the EC50 is 0.4 nM. `COc1ccc(C[C@@H](NC(=O)Nc2ccc(OC)cc2)c2nc3ccccc3[nH]2)cc1` [Example 104, (R)-1-(1-(1H-Benzo[d]imidazol-2-yl)-2-(4-methoxyphenyl)ethyl)-3-(4-methoxyphenyl)urea]: the EC50 was found to be 257 nM. Consider `COc1ccc(C[C@@H](NC(=O)N[C@@H](C)c2ccc(Br)cc2)c2nc3ccccc3[nH]2)cc1` [Example 331, 1-((R)-1-(1H-Benzo[d]imidazol-2-yl)-2-(4-methoxyphenyl)ethyl)-3-((S)-1-(4-bromophenyl)ethyl)urea], for which the EC50 was 146 nM. With `COc1ccc(C[C@@H](NC(=O)NC2CC(C)(C)N(C)C(C)(C)C2)c2nc3ccccc3[nH]2)cc1` [Example 116, (R)-1-(1-(1H-Benzo[d]imidazol-2-yl)-2-(4-methoxyphenyl)ethyl)-3-(1,2,2,6,6-pentamethylpiperidin-4-yl)urea], the EC50 stood at 63 nM. Then `C[C@]1(O)CC[C@H](NC(=O)N[C@H](Cc2ccc(C(F)(F)F)cc2)c2nc3ccccc3[nH]2)CC1` [Example 256, 1-((R)-1-(1H-Benzo[d]imidazol-2-yl)-2-(4-(trifluoromethyl)phenyl)ethyl)-3-(trans-4-hydroxy-4-methylcyclohexyl)urea], with 13 nM. For `COc1ccc(C[C@@H](NC(=O)NC2(c3ccc(Cl)cc3)CC2)c2nc3ccccc3[nH]2)cc1` [Example 355, (R)-1-(1-(1H-Benzo[d]imidazol-2-yl)-2-(4-methoxyphenyl)ethyl)-3-(1-(4-chlorophenyl)cyclopropyl)urea], the EC50 was determined as 157 nM. In the case of `O=C(N[C@H](Cc1ccc(Br)cc1)c1nc2ccccc2[nH]1)NC12CCC(O)(CC1)CC2` [Example 220, (R)-1-(1-(1H-Benzo[d]imidazol-2-yl)-2-(4-bromophenyl)ethyl)-3-(4-hydroxybicyclo[2.2.2]octan-1-yl)urea] it was 4.9 nM. On to `COc1ccc(C[C@@H](NC(=O)N[C@H](C)c2ccccc2OC)c2nc3ccccc3[nH]2)cc1` [Example 327, 1-((R)-1-(1H-Benzo[d]imidazol-2-yl)-2-(4-methoxyphenyl)ethyl)-3-((R)-1-(2-methoxyphenyl)ethyl)urea], for which the EC50 was determined as 310 nM. Then `O=C(N[C@H](Cc1ccc(C(F)(F)F)cc1)c1nc2ccccc2[nH]1)N[C@H]1CC[C@H](O)CC1` [Example 190, 1-((R)-1-(1H-Benzo[d]imidazol-2-yl)-2-(4-(trifluoromethyl)phenyl)ethyl)-3-(trans-4-hydroxycyclohexyl)urea], with 19 nM; and `CCC(NC(=O)N[C@H](Cc1ccc(OC)cc1)c1nc2ccccc2[nH]1)c1ccccc1` (stereo partly drawn) [Example 279, 1-((R)-1-(1H-Benzo[d]imidazol-2-yl)-2-(4-methoxyphenyl)ethyl)-3-(1-phenylpropyl)urea], with 40 nM.
